According to PubChem BioAssay AID1963965 (Molecular Pharmacology Branch, DTP, NCI, 2024):

Test system: 996289-038-R-J1-PDC spheroid viability
Assay: Anticancer human tumor 996289-038-R-J1-PDC patient-derived colon adenocarcinoma cell line growth inhibition [PI3K]
Conditions: spheroids with HUVEC and MSC; for IC50: curve of first compound; for viability, T/C: stronger effect = lower value
Method in brief: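 Viability of mixed-cell spheroids was determined after exposure to pairwise combinations, one partner being inavolisib, alpelisib, duvelisib or copanlisib. Highest tested concentration matched clinical Cmax where known and 10 microM where not, descending in half-log steps.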
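Also: spheroids exposed to compounds for seven days before viability read.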
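For viability, T/C in this document: luminescence used as a proxy for viable cell amount; percent viability relative to DMSO vehicle control as 100%.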

With CCN1CCN(Cc2ccc(Nc3ncc(F)c(-c4cc(F)c5nc(C)n(C(C)C)c5c4)n3)nc2)CC1 + CC(Nc1ncnc2nc[nH]c12)c1cc2cccc(Cl)c2c(=O)n1-c1ccccc1 the IC50 (second compound 0.0316 µM) was > 1000 nM, the IC50 (second compound 0.1 µM) was > 1000 nM and the IC50 (second compound 0.316 µM) was > 1000 nM. The IC50 (second compound 1 µM) was > 1000 nM, the IC50 (second compound 3.16 µM) was > 1000 nM and the IC50 (second compound 10 µM) was > 1000 nM. The viability, T/C (second compound 0.0316 µM, first compound 0.00316 µM) was 111%, the viability, T/C (second compound 0.0316 µM, first compound 0.01 µM) was 94.2% and the viability, T/C (second compound 0.0316 µM, first compound 0.0316 µM) was 92.2%. The viability, T/C (second compound 0.0316 µM, first compound 0.1 µM) was 87.1%, the viability, T/C (second compound 0.0316 µM, first compound 0.316 µM) was 79% and the viability, T/C (second compound 0.0316 µM, first compound 1 µM) was 74.1%. It also gave a viability, T/C (second compound 0.1 µM, first compound 0.00316 µM) of 102%, a viability, T/C (second compound 0.1 µM, first compound 0.01 µM) of 96.4% and a viability, T/C (second compound 0.1 µM, first compound 0.0316 µM) of 91.8%. For the same compound, the viability, T/C (second compound 0.1 µM, first compound 0.1 µM) was 86.7%, the viability, T/C (second compound 0.1 µM, first compound 0.316 µM) was 76.7% and the viability, T/C (second compound 0.1 µM, first compound 1 µM) was 80%. It also gave a viability, T/C (second compound 0.316 µM, first compound 0.00316 µM) of 96.2%, a viability, T/C (second compound 0.316 µM, first compound 0.01 µM) of 93.7% and a viability, T/C (second compound 0.316 µM, first compound 0.0316 µM) of 89.1%. The viability, T/C (second compound 0.316 µM, first compound 0.1 µM) was 80.3%, the viability, T/C (second compound 0.316 µM, first compound 0.316 µM) was 75% and the viability, T/C (second compound 0.316 µM, first compound 1 µM) was 80.4%. The viability, T/C (second compound 1 µM, first compound 0.00316 µM) was 104%, the viability, T/C (second compound 1 µM, first compound 0.01 µM) was 88.5% and the viability, T/C (second compound 1 µM, first compound 0.0316 µM) was 86%. For the same compound, the viability, T/C (second compound 1 µM, first compound 0.1 µM) was 79.8%, the viability, T/C (second compound 1 µM, first compound 0.316 µM) was 76.8% and the viability, T/C (second compound 1 µM, first compound 1 µM) was 70.7%. The viability, T/C (second compound 3.16 µM, first compound 0.00316 µM) was 98.1%, the viability, T/C (second compound 3.16 µM, first compound 0.01 µM) was 105% and the viability, T/C (second compound 3.16 µM, first compound 0.0316 µM) was 79.4%. For the same compound, the viability, T/C (second compound 3.16 µM, first compound 0.1 µM) was 86.6%, the viability, T/C (second compound 3.16 µM, first compound 0.316 µM) was 81% and the viability, T/C (second compound 3.16 µM, first compound 1 µM) was 68.8%. It also gave a viability, T/C (second compound 10 µM, first compound 0.00316 µM) of 82%, a viability, T/C (second compound 10 µM, first compound 0.01 µM) of 76% and a viability, T/C (second compound 10 µM, first compound 0.0316 µM) of 82.4%. It also gave a viability, T/C (second compound 10 µM, first compound 0.1 µM) of 74.3%, a viability, T/C (second compound 10 µM, first compound 0.316 µM) of 71% and a viability, T/C (second compound 10 µM, first compound 1 µM) of 58.6%.
